This is an account of results in paper PMC8624457, “Synthesis and Characterization of the Ethylene-Carbonate-Linked L-Valine Derivatives of 4,4-Dimethylcurcumin with Potential Anticancer Activities” (Molecules, 2021).

Molecules are shown by their SMILES.

For orientation: IC50 means the midpoint of a concentration-inhibition curve.

Series [1] is described as follows: Storage stability by HPLC purity / 1H NMR. In kind it is physicochemical. The settings on record: solution in d-chloroform, room temperature, fresh, 1 day, 4 days. How it is done: The procedures employed for the synthesis of targeted compounds 1 and 2 are depicted in Scheme 1. The required DMCU was prepared according to a three-step sequence reported in the literature. Initially, the commercially available Boc-L-valine 3 was reacted with 2-aminoethanol 4 in the presence of HOTT and Et3N to provide the amide product 5 in 82% yield. Under treatment with 4-nitrophenyl chloroformate and DIPEA, 5 was converted into 6 in 87% yield. One equivalent or excess amount of 6 was coupled with the deprotonated DMCU, formed in situ by the treatment of DMCU with Cs2CO3, to afford compound 7 and 8, respectively. Compound 7 and 8 thus obtained were subjected to Boc deprotection under the standard conditions to give 1 and 2, respectively. The preliminary stability test was performed with NMR by applying 2 as a typical example. […] Based on our previous experience in the synthesis of DMCU-HMP, the instability could be ascribed to the cross-hydrolysis of carbonate group by the terminal amino group of side chain. Salt formation reactions of the N-terminal L-valine were then carried out to cap the nucleophilic amino group. […] 2-TFA is also stable in DMSO solution (0.1 M concentration). After 6-day storage at room temperate, the purity of 2-TFA remained intact. Accordingly, a similar salt formation procedure was employed to produce the stable 1-TFA. Compound 1-TFA along with 2-TFA were then applied for the following evaluations.
Figure 2 The stability assessments of 2 and 2-TFA. (A) A clear solution of 2 in d-chloroform was subjected to a purity assessment by ^1H NMR spectroscopy at various storage times (fresh prepared (≤1 h); 1 day; 4 days). (B) The HPLC purity of fresh prepared 2-TFA was 95.74%. The fresh prepared 2-TFA in a solid state was stored at room temperature for another 6 days and then dissolved in water for HPLC analysis. The HPLC purity was decided as 95.55%. The fresh prepared 2-TFA was dissolved in DMSO and the resulting solution was stored at room temperature for another 6 days. HPLC purity of 2-TFA in the DMSO solution was 94.66%. […]

The test system of the next series is MDA-MB-231 breast cancer. The settings on record: cited from earlier work.
Series [2] relates to HCT-116 colon cancer cell. The settings on record: cited from earlier work.

On to `COc1cc(/C=C/C(=O)C(C)(C)C(=O)/C=C/c2ccc(OC(=O)OCCNC(=O)[C@@H](N)C(C)C)c(OC)c2)ccc1OC(=O)OCCNC(=O)[C@@H](N)C(C)C` [Compound 2], for which the “stability by 1H NMR (in words)” value in series [1] is recorded as “gradually degraded into unidentified products”. As to `COc1cc(/C=C/C(=O)C(C)(C)C(=O)/C=C/c2ccc(OC(=O)C(C)(CO)CO)c(OC)c2)ccc1OC(=O)C(C)(CO)CO` [DMCU-HMP, 4,4-dimethyl substituted curcuminoid 2,2-bis(hydroxymethyl)propionate], the IC50 was 2.2 µM with MDA-MB-231 breast cancer and 3.1 µM in series [2].
